In data set [1] the test system is M. abscessus Bamboo biofilms. Description: Biofilm growth inhibition assay (biofilm MIC and MBC). Format: cell-based, Mycobacterium abscessus. Here is the method:
The biofilm growth inhibition assay was performed as previously described ([52]). Innovotech MBEC 96-well Biofilm Assay Plates (Innovotech 19111, Edmonton, AB, Alberta, Canada) were used, and the supplier’s manual was followed with minor modifications. Midlog phase M. abscessus Bamboo precultures (OD600 = 0.4–0.6) were spun down at 3,200 × g for 10 min at 25°C and washed with 7H9 medium without Tween 80 (7H9nt). Bacteria were resuspended into 25 ml 7H9nt to an OD600 = 0.0125 (1.0 × 10^6 CFU/ml). 150 μl of bacteria suspension was dispensed into each well of MBEC multititer plates and the polystyrene protrusions (pegs) of the MBEC lid were inserted into the culture-containing wells for 24 h at 37°C on an orbital shaker at 110 rpm to allow attachment of the bacteria to the pegs and initiation of biofilm growth. The lids with the pegs (now with 1-day-old biofilms) were transferred to new MBEC multititer plates containing 150 μl of fresh 7H9nt medium per well without bacteria (0 h time point). After that, the lids with biofilm-laden pegs were transferred once a day to a new multititer plate containing fresh 7H9nt medium. To measure growth of the biofilm formed on the peg, the pegs were washed in 200 μl of 7H9nt medium before they were aseptically removed and placed in 1.7 ml microcentrifuge tubes (VWR 87003-294, Rador, PA, United States) containing 500 μl PBS/Tween 80. The microcentrifuge tubes were vigorously vortexed at 2,000 rpm for 90 s at 25°C to detach the bacteria from the pegs before samples were serially diluted and plated for the determination of CFU/peg. […] The average drug-free biofilm growth was calculated by subtracting the average 24 h CFU/peg value from the average 72 h CFU/peg value for the untreated control pegs. The biofilm MIC was defined as the lowest drug concentration that reduced the CFU/peg by 90% relative to the average drug-free biofilm growth.

For data set [2], the system named is nutrient-starved, nonreplicating M. abscessus Bamboo. Description: MBC determination under nutrient-starved conditions. In kind it is cell-based, Mycobacterium abscessus. As to conditions: 48 h drug exposure. Here is the method:
The determination of drug bactericidal activity against nutrient-starved M. abscessus cultures was performed as previously described ([52]). […] Washed culture was then diluted with PBS/Tyloxapol to OD600 = 0.2 (1.8 × 10^7 CFU/ml). […] Appropriate concentrations of drugs up to 100 μM were added to the tubes prior to incubation at 37°C on a tilted rack in an orbital shaker at 220 rpm.

For data set [3], the system named is M. abscessus subsp. bolletii M232. Description: microbe, parasite or virus in culture. As to conditions: Mycobacteroides abscessus, 72 h. In kind it is cell-based, Mycobacterium abscessus.
Data set [4] relates to M. avium 11. Put plainly: microbe, parasite or virus in culture. As to conditions: Mycobacterium avium, 11, 96 h. Format: cell-based.
The test system of data set [5] is M. abscessus subsp. bolletii CCUG 50184T. Put plainly: microbe, parasite or virus in culture. In kind it is cell-based, Mycobacterium abscessus. As to conditions: Mycobacteroides abscessus, 72 h.
In data set [6] the test system is M. abscessus subsp. abscessus M422. Description: microbe, parasite or virus in culture. Format: cell-based, Mycobacterium abscessus. To be noted: Mycobacteroides abscessus, 72 h.
In data set [7] the test system is M. abscessus Bamboo RM2 (GyrA D91N). Description: microbe, parasite or virus in culture. In kind it is cell-based, Mycobacterium abscessus.
Data set [8] is described as follows: Stability in microsomes (intrinsic clearance). In kind it is in vitro ADME, mouse. Here is the method:
(§1) Intrinsic clearance (CLi) values were determined in mouse and human liver microsomes. Test compounds (final concentration 0.5 μM) were incubated at 37°C for 30 min in 50 mM potassium phosphate buffer (pH 7.4) containing 0.5 mg microsomal protein/ml. The reaction was started by addition of cofactor NADPH. At 10 different time points (from zero to 30 min) an aliquot (90 μl) was taken, quenched with acetonitrile-methanol containing an appropriate internal standard, centrifuged and analyzed by LC-MS/MS. The intrinsic clearance (CLi) was determined using the following equation: CLi=k*(ml of incubation/mg microsomal protein)*(mg microsomal protein/g liver)
(§2) Where k is the turn-over rate constant of the ln (% remaining compound) versus time regression and mg microsomal protein/g liver is 52.5 for both mouse and human.

Data set [9] concerns M. abscessus subsp. abscessus ATCC 19977. Put plainly: microbe, parasite or virus in culture. In kind it is cell-based, Mycobacterium abscessus. As to conditions: Mycobacteroides abscessus.
The test system of data set [10] is M. abscessus subsp. massiliense M111. Description: microbe, parasite or virus in culture. In kind it is cell-based, Mycobacterium abscessus. As to conditions: Mycobacteroides abscessus, 72 h.
Data set [11] relates to M. abscessus Bamboo. Description: MIC and MBC determination in culture tubes (planktonic). In kind it is cell-based, Mycobacterium abscessus. To be noted: Mycobacteroides abscessus.
Data set [12] concerns M. abscessus subsp. massiliense CCUG 48898T. Description: microbe, parasite or virus in culture. Format: cell-based, Mycobacterium abscessus. To be noted: Mycobacteroides abscessus, 72 h.
Data set [13] deals with M. abscessus subsp. bolletii M506. Put plainly: microbe, parasite or virus in culture. Format: cell-based, Mycobacterium abscessus. To be noted: Mycobacteroides abscessus, 72 h.
Data set [14] in a line: Stability in microsomes (intrinsic clearance). Format: in vitro ADME, human. Here is the method: as §1, §2
The subject of data set [15] is M. tuberculosis H37Rv ATCC 27294. Description: microbe, parasite or virus in culture. To be noted: Mycobacterium tuberculosis, 168 h. Format: cell-based.

In brackets after ≈: the same amount, converted by molar mass. Where two headings read alike, the source gives them in different places.

The values below come from publication PMC8597734 (Antimicrobial Agents and Chemotherapy, 2021).

Take `COc1cnc2ccc(=O)n(CCN3CCC(NCc4cnc(CO)c(Cl)c4)CC3)c2c1` [EC/11716]: in data set [1] (M. abscessus Bamboo biofilm vs planktonic bacteria), the “increase of biofilm MBC relative to planktonic MBC” value came to 2 fold. The MBC was 6.3 µM (≈ 2.89 µg/mL) in data set [1] (Mycobacteroides abscessus, Biofilm, M. abscessus Bamboo, 10-fold reduction of CFU/peg vs 24 h); greater than 100 µM in data set [2]; greater than 100 µM in [2] (Mycobacteroides abscessus); 3.1 µM (≈ 1.42 µg/mL) in data set [11] (0 h, 10-fold reduction in CFU/ml vs day 0). The MIC was 0.78 µM (≈ 0.357 µg/mL) in data set [1] (Mycobacteroides abscessus, Biofilm, M. abscessus Bamboo, 90% reduction of CFU/peg relative to drug-free biofilm growth, 48 h); 2.5 µM (≈ 1.14 µg/mL) in data set [3]; 1.1 µM (≈ 0.504 µg/mL) in data set [4]; 4.1 µM (≈ 1.88 µg/mL) in data set [5]; 1.8 µM (≈ 0.824 µg/mL) in data set [6]; greater than 100 µM in data set [7]. The MIC in data set [7] (Mycobacteroides abscessus) is greater than 100 µM; in data set [9] (ATCC19977), 1.9 µM (≈ 0.87 µg/mL); in data set [9] (ATCC19977, 72 h), 1.8 µM (≈ 0.824 µg/mL); in data set [10] it was 4.9 µM (≈ 2.24 µg/mL); in data set [11] (48 h, day 2), 1.5 µM (≈ 0.687 µg/mL); in data set [12], 4.7 µM (≈ 2.15 µg/mL). In addition, the MIC in data set [13] was 5.2 µM (≈ 2.38 µg/mL); in data set [15], 0.38 µM (≈ 0.174 µg/mL). For the same molecule, in [8] (mouse hepatic microsomes, free base form), the “Mouse In vitro CLint” value amounted to 1.6 ml/min/g tissue. Moreover, the mouse microsomal clearance in [8] (mouse microsomes) is recorded as 1.6 ml/min/g protein. Besides, the “Human In vitro CLint” value in data set [14] (human hepatic microsomes, free base form) is less than 0.3 ml/min/g tissue. The Human microsomal clearance in data set [14] (human microsomes) is less than 0.3 ml/min/g protein.
